Measured values as given in patent US10766873B2, “Zuclopenthixol hydrochloride derivatives and Ebselen derivatives as ErbB2 inhibitors” (Centre National de la Recherche Scientifique (CNRS), priority 2016, dated 2020).

How the values were obtained:
HBMEC = experiment: MTT cell proliferation, HBMEC control cells; format: cell-based, human
Procedure: We then analyzed the ability of ZU and EB1 and their derivatives to decrease the ErbB2-dependent cell proliferation.
SKBR3, BT474, MCF-7, MDA-MB-231 and HBMEC cells were treated with the compounds as indicated, and cell proliferation was determined each day during 3 days using an MTT assay. Non treated cells were included as a negative control.
(§1) The WT, V777L or V842I ErbB2-transfected cells were treated with 5 or 10 μM of ZU and cell proliferation was determined each day during 3 days using an MTT assay. Non transfected cells were included as a negative control.
(§2) The WT, V777L or V842I ErbB2-transfected cells were treated with 5 or 10 μM of EB1 and cell proliferation was determined each day during 3 days using an MTT assay. Non transfected cells were included as a negative control.

[1] = test system: EGFR/ErBB2 or ErbB3/ErbB2 heterodimers-dependent signalling pathways; experiment: Ligand-dependent ErbB2 activation (EGF or HRG) in HBMECs, western blot; format: cell-based; details: pre-treatment 1 h or 24 h
Procedure: In physiological conditions, ErbB2 activation occurs in heterodimer with the other ErbB family members, such as the EGFR in response to EGF stimulation or ErbB3 in response to heregulin (HRG) stimulation. We therefore addressed whether ZU, EB1 and their derivatives also affected the ligand-dependent physiological ErbB2 activation.
16 h-starved HBMECs cells were pre-treated or not for 1 h or 24 h with ZU, […] and their derivatives or AG1478 before EGF (50 ng/mL) or HRG1β (100 ng/mL) stimulation for 5 minutes. The activation of EGFR/ErBB2 or ErbB3/ErbB2 heterodimers-dependent signalling pathways was then analysed by western blot experiments using pAkt, Akt, pERK, ERK or 4G10 antibodies.

[2] = target: peptide encoding the juxtamembrane region of ERBB2 (Homo sapiens, UniProt P04626); experiment: Surface Plasmon Resonance, Biacore T200; format: binding
Source text: We analyzed the ability of ZU to directly bind to the juxtamembrane domain of ErbB2 using Surface Plasmon Resonance assays on a Biacore T200. For that, we compared the affinity of the compounds for a peptide containing the Ezrin binding motif […] of ErbB2 immobilized on sensorchips, which was reflected by the amplitude of the SPR response.
Compound ZU and EB1 were validated for their interaction with peptide encoding the juxtamembrane region of ERBB2 using a Biacore T200 (IECB, Bordeaux). Biotinylated peptide encoding the juxtamembrane region of ERBB2 (biotin-[…]) has been immobilized on Streptavidin-coated sensor chips (Series S sensor chip SA, GE Healthcare). Compound ZU in PBS, 0.02% tween20 buffer was used as analyte, and the Ezrin FERM domain has been used as a positive control.

ErbB2 [3] = target: T1, ErbB2 (Homo sapiens, UniProt P04626); experiment: ErbB2 activation in N87 cells, dot blot (4G10); format: cell-based; design: endogenous in cells; host or cells: N87
T1 sequence (P04626 23-1255): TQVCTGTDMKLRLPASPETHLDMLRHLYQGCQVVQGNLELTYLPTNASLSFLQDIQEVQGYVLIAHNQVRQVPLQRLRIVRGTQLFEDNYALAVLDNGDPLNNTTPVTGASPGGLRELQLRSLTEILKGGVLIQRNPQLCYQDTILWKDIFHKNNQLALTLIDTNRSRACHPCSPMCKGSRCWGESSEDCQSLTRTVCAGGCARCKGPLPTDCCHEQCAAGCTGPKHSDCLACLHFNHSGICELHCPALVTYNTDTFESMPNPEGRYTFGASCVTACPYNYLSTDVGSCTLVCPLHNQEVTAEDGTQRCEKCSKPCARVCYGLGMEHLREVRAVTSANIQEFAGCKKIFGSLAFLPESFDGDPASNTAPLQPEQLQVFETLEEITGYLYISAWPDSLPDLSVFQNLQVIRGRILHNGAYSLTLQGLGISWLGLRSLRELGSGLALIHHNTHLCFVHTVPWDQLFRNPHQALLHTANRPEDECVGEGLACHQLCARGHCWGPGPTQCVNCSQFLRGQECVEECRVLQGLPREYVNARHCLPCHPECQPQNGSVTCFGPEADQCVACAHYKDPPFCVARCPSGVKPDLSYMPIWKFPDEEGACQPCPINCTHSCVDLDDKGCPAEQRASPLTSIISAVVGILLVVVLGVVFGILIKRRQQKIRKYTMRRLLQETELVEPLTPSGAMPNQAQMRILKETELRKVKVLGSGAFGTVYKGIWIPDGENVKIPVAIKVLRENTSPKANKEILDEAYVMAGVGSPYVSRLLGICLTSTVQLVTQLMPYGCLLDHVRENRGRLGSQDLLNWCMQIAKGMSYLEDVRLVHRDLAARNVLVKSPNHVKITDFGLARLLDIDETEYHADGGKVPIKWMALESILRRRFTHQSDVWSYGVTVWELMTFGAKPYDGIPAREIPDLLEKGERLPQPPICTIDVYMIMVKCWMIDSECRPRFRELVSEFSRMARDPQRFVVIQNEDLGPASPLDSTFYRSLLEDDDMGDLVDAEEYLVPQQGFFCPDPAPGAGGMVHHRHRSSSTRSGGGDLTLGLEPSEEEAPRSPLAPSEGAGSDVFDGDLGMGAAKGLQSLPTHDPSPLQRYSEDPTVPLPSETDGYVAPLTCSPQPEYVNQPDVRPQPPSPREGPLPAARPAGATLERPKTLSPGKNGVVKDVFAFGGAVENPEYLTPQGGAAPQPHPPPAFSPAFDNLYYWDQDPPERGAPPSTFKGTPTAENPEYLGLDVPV
Procedure: The phosphotyrosine content in the ErbB2-overexpressing gastric cancer cell line N87 was analyzed by dot blot using an anti-phosphotyrosine antibody (clone 4G10). As in these cells, ErbB2 is the main phosphorylated protein, decreased in total phosphotyrosine content mainly reflected inhibition of ErbB2 activity. As a control, the non-specific ErbB2 kinase inhibitor AG1478 was used. Quantifications show the result of two independent experiments.

ErbB2 [4] = target: T1, ErbB2; experiment: ErbB2 phosphorylation in SKBR3 cells, dot blot (4G10); format: cell-based; design: endogenous in cells; host or cells: SKBR3; details: SKBR3, 24 h
Procedure: The ability of ZU and EB1 and their derivatives to inhibit ErbB2 activity in cellulo on a commonly used ErbB2-overexpressing breast cancer cell line SKBR3 was analyzed. SKBR3 were treated 24 h with increasing concentrations of the compounds (0.625-80 μM) and ErbB2 phosphorylation was addressed by dot blot analysis using an anti-phosphotyrosine antibody (clone 4G10). Quantifications show the result of two independent experiments.

[5] = test system: human breast cancer BT474 cells; experiment: BT474 orthotopic xenograft in mammary fat pad of mice; format: in vivo, NOD.Cg-Prkdc scid/J mice; details: for tumor growth in vivo (in words): then once per day 3 days
Procedure: 5.10^6 BT474 cells were implanted orthotopically in the mammary fat pad of NOD.Cg-Prkdc scid/J mice, in the presence of estradiol supplement. After 4 weeks, mice were injected with ZU (N=10, 5 mg/kg per day for 5 days a week, followed by 3 mg/kg for 5 days a week during three weeks for N=6) or vehicle (N=10, 10% DMSO in PBS). Mice weight and tumor volume were measured 3 and 2 times a week respectively.
5.10^6 BT474 cells were implanted orthotopically in the mammary fat pad of NOD.Cg-Prkdc scid/J mice, in the presence of estradiol supplement. Nineteen days after implantation, treatment began and mice were injected i.p. with […] ZU (5 mg/kg per day for 3 days a week, during three weeks for N=9), 4 mg/kg ZU (5 days a week during three weeks, N=8) or vehicle (N=9, 10% DMSO in PBS). Mice weight and tumor volume were measured 3 and 2 times a week respectively.
5.10^6 BT474 cells were implanted orthotopically in the mammary fat pad of NOD.Cg-Prkdc scid/J mice, in the presence of estradiol supplement. After 4 weeks, mice were injected with EB1 3 mg/kg (N=8), 5 mg/kg (N=6) or vehicle (N=8, 10% DMSO in PBS) twice a day for 5 days a week (2×D), during 2 weeks then once per day (1×D) during 3 days. Mice weight and tumor volume were measured 3 and 2 times a week respectively.

BT474 = experiment: Soft agar colony formation, BT474; format: cell-based, human; details: 5 or 10 μM, 6 weeks
Procedure: A bottom layer of 0.8% agarose in DMEM supplemented with 20% SVF and penicillin/streptomycin was added to 24 well plates before seeding 25.10^3 SKBR3 or BT474 cells/well in a 0.6% agarose top layer. Cells were left untreated or treated with 5 or 10 μM ZU or EB1 or 5 μM AG1478 (a non-specific ErbB2 kinase inhibitor) as a positive control. Treatments were renewed 3 times a week. After 6 weeks, the number of colonies and their size were quantified using image J software. The colony formation is illustrated for each condition. Data are presented as mean±SEM.

[6] = test system: WT ErbB2-transfected cells; experiment: MTT cell proliferation, WT ErbB2-transfected HBMEC; format: cell-based; details: day 3
Procedure: as §1, §2

Question: Which “effect on HBMEC proliferation (in words)” value (HBMEC; 10 μM) does the source give for `O=C1c2ccccc2[Se](=O)N1c1ccccc1` (centres unmarked) [EB1, Ebselen oxide] here?
Answer: The value was “without any effect”.

Question: And the “effect on proliferation of non-transfected HBMECs cells (in words)” value (HBMEC; 10 μM, day 3)?
Answer: Its value is “no effect”.

Question: What about the EC50 (HBMEC; Homo sapiens, 72 h, read-out: Cell proliferation at d 3 HBMEC EC50, μM) of the same molecule?
Answer: Its EC50 is 99.2 µM.

Question: And the “Cell proliferation at d 3 HBMEC Max inhibition, %” value (HBMEC; day 3)?
Answer: Its value is 94.4%.

Question: What about the “ligand-dependent ErbB2 activation induced by EGF or HRG stimulation (in words)” value [1] of the same molecule?
Answer: The value was “absence of inhibition”.

Question: What about the “binding to immobilized ErbB2 juxtamembrane peptide (SPR, in words)” value [2] of the same molecule?
Answer: The value was “bound to the immobilized peptide”.

Question: And the “ErbB2 activation in N87 cell line (in words)” value (ErbB2 [3])?
Answer: Its value is “potently decrease ErbB2 activation”.

Question: And the Emax (ErbB2 [4]; SK-BR-3, 0.625-80 μM, read-out: ErbB2 activation 24 h Max inhibition, %)?
Answer: The Emax was 66.9%.

Question: What about the “maximum inhibition of ErbB2 phosphorylation” value (ErbB2 [4]) of the same molecule?
Answer: Its value is 70%.

Question: What about the EC50 (ErbB2 [4]; read-out: ErbB2 activation 24 h EC50) of the same molecule?
Answer: The EC50 was 23.4 µM.

Question: And the IC50 (ErbB2 [4]; read-out: IC50 ErbB2 phosphorylation)?
Answer: Its IC50 is 20 µM.

Question: What about the “tumor growth in vivo (in words)” value ([5]; 3 mg/kg twice a day 5 days a week 2 weeks) of the same molecule?
Answer: The value was “able to decrease the tumor growth”.

Question: And the “tumor growth in vivo (in words)” value ([5]; 5 mg/kg twice a day 5 days a week 2 weeks, tumor volume and tumor weight)?
Answer: The value was “more significant”.

Question: What about the “tolerability in mice, body weight (in words)” value ([5]; 3 or 5 mg/kg) of the same molecule?
Answer: Its value is “well tolerated”.

Question: And the “anchorage-independent growth of BT474 (in words)” value (BT474)?
Answer: Its value is “inhibited the anchorage-independent growth”.

Question: What about the “decrease of the proliferation of WT transfected HBMEC” value ([6]; 5 μM) of the same molecule?
Answer: The value was 60%.

Question: And the “decrease of the proliferation of WT transfected HBMEC” value ([6]; 10 μM)?
Answer: Its value is 95%.
